Experimental data as given in US6686345B2, “DNA-cleaving antitumor agents” (Research Development Foundation, priority 1998, dated 2004).
Entries after “also recorded” stand apart in the source; their conditions may differ.

What was measured:
[1] = system: various cancer cell lines; assay: In vitro cytotoxicity of KeAZB002 on various cancer cell lines; type: cell-based; conditions: variety of cancer cell types, FIG. 16
[2] = system: A549 non-small cell lung cancer cells; assay: In vivo evaluation in SCID mice implanted with A549 cells
Supercoiled DNA = assay: DNA cleavage by heterocyclic variants (KeAZB series); type: biochemical
Description: The gel depicted in FIG. 3 represents the results of the DNA cleavage experiment with KeAZB002. Supercoiled DNA (50 uM in 50 mM TRIS phosphate buffer, pH 8) was incubated with 0 (lanes 1, 5), 1 (lanes 2, 6), 100 (lanes 3, 7), or 1000 (lane 4) uM of KeAZB002 for 24 hours at 20° C. Samples for lanes 5-8 were loaded onto the agarose gel, whereas samples for lanes 1-4 were heated at 70° C. for 90 sec. prior to loading onto the gel. After electrophoresis at 60 V for 2 hrs, the DNA products were visualized with ethidium bromide staining and UV transillumination.

[3] = Stability of KeAZB002 in aqueous solution; type: physicochemical
[4] = Stability of heterocyclic salts in methanol (CD3OD) monitored by NMR; conditions: solution in CD3OD monitored by NMR
From the text: The stability of solutions of these salts in CD3OD can be monitored by NMR.

supercoiled plasmid DNA = assay: DNA cleavage of supercoiled plasmid DNA by aza-enediyne heterocycles (thiazolium and benzothiazolium salts); type: biochemical
Description: The DNA cleavage efficiency of aza-enediyne heterocycles is determined by incubating the azaenediynes with supercoiled plasmid DNA. The supercoiled DNA was diluted to 50 μM bp in 50 mM TRIS buffer at pH 8.0. […] DNA topoisomers were separated by electrophoresis (0.8% agarose, 1× TBE, 82V, 1 hr 10 min) and stained with ethidium bromide (0.25 μg/mL) and images were analyzed by phosphorimger.
(§1) The normalized percent cleavage of DNA is determined as: [formula]
DNA cleavage normalized for the small amount (10-25%) of nicked relaxed DNA in control samples (DMSO-only treated DNA) is reported in Table 6.

[5] = system: supercoiled ΦX174 plasmid DNA; assay: DNA cleavage by 2-alkynyl pyridinium triflate salts; type: biochemical, ΦX174 Phage; conditions: for Normalized Percent Cleavage of ΦX174 Phage (RF-1) DNA: 24 hrs at 37° C., pH 8.0; for DNA cleavage (in words): pyridinium series
Description: as §1
The DNA cleavage efficiency of these azaenediyne heterocycles was determined by incubation with aqueous solutions of supercoiled ΦX174 plasmid DNA. The supercoiled DNA was diluted to 50 μM bp in 50 mM TRIS pH 8.0. The reaction mixtures containing compound and 13% v/v DMSO-d6 were incubated for 24 hrs at 37° C. DNA topoisomers were separated by agarose gel electrophoresis (1 X TBE, 90V, 1 hr), stained with ethidium bromide (0.25 μg/mL), and the images were analyzed on a fluorimager. DNA cleavage results are reported as normalized percent cleavage in Table 7 as for the thiazolium and benzothiazolium salts in Example 8.

A549 cancer cells = assay: In vitro cancer cell cytotoxicity of pyridinium salts, A549; type: cell-based; conditions: for IC50: Homo sapiens, A549 cells, growth inhibition
From the text: (§2) The 2-ethynyl-1-prop-2-ynyl-pyridinium triflate salt has less activity in the in vitro cytotoxicity assay, perhaps due to the instability of this compound in nucleophilic solvents. The IC50 (50% Inhibition Concentration) is defined as the test compound concentration where the increase from time 0 in the number or mass of treated cells is only 50% as much as the corresponding increase in the vehicle-control at the end of experiment.

MCF-7 cancer cells = assay: In vitro cancer cell cytotoxicity of pyridinium salts, MCF-7; type: cell-based; conditions: for IC50: Homo sapiens, MCF7, MCF-7 cells, growth inhibition
From the text: as §2

Structure (SMILES) | Normalized Percent Cleavage of ΦX174 Phage (RF-1) DNA ([5]; 1 μM) | Normalized Percent Cleavage of ΦX174 Phage (RF-1) DNA ([5]; 10 μM) | Normalized Percent Cleavage of ΦX174 Phage (RF-1) DNA ([5]; 50 μM) | Normalized Percent Cleavage of ΦX174 Phage (RF-1) DNA ([5]; 100 μM) | IC50 (A549 cancer cells) | IC50 (MCF-7 cancer cells) | further results
Cn1c(C#Cc2ccccc2)[n+](CC#Cc2ccccc2)c2ccccc21.F[B-](F)(F)F [KeAZB002, N-phenylpropargyl-N-methyl-2-phenylethynylbenzimidazolium tetrafluoroborate] | – | – | – | – | – | – | in vitro cytotoxicity (in words) [1]: shows activity against several tumor cell lines in vitro; also recorded: cytotoxic to a variety of cancer cell types; antitumor activity in vivo (in words) [2]: demonstrates antitumor activity in vivo; also recorded: modest antitumor activity; tumor weight ([2]; seventeen days, versus control): decreased consistently in comparison to control; DNA cleavage (in words) (Supercoiled DNA): cleaves DNA at micromolar concentrations; also recorded: cleaves the DNA, producing frank single strand breaks; also recorded: strongly temperature dependent; stability in basic aqueous solution ([3]; basic aqueous solution): undergoes a series of reactions; stability in water ([3]; water at neutral pH): stable indefinitely
C#CC[n+]1ccccc1C#Cc1ccccc1.O=S(=O)([O-])C(F)(F)F [KeAZB009, N-propargyl-2-phenylethynylpyridiniumium triflate] | – | – | – | – | – | – | DNA cleavage (in words) (Supercoiled DNA): more potent DNA cleavage than KeAZB002
C#CC[n+]1ccsc1C#Cc1ccccc1 [drawing 119] | – | – | – | – | – | – | Stability in MeOH (Initial Decomposition) [4]: ˜24 hr; DNA Cleavage 100 μM (supercoiled plasmid DNA; 100 μM compound, 50 μM bp DNA, TRIS pH 8.0, 24 hrs at 37° C.): 76%; DNA Cleavage 1 mM (supercoiled plasmid DNA; 1 mM compound, 50 μM bp DNA, TRIS pH 8.0, 24 hrs at 37° C.): 100%
C#CC[n+]1ccsc1C#Cc1ccccc1 [drawing 121] | – | – | – | – | – | – | Normalized Cleavage (%) (supercoiled plasmid DNA; Concentration 25 μM): 37.31%; Normalized Cleavage (%) (supercoiled plasmid DNA; Concentration 50 μM): 56.84%; Normalized Cleavage (%) (supercoiled plasmid DNA; Concentration 100 μM): 67.29%; Normalized Cleavage (%) (supercoiled plasmid DNA; Concentration 250 μM): 92.79%
C#CC[n+]1ccccc1C#Cc1ccccc1 [drawing 122, 1-prop-2-ynyl-2-phenylethynyl pyridinium triflate] | 0.4% | 17% | 83% | 87% | – | – | –
C#CC[n+]1ccccc1C#Cc1ccc(OC)cc1 [drawing 123, 1-prop-2-ynyl-2[(4-methoxyphenyl)-ethynyl]-pyridinium triflate] | 7.5% | 71% | 97% | 100% | – | – | lowest concentration producing DNA cleavage ([5]; ΦX174 DNA): 1 µM; DNA cleavage (in words) ([5]; ΦX174 DNA): most potent DNA cleavage activity
C#CC[n+]1ccccc1C#Cc1ccc(C(F)(F)F)cc1 [drawing 124, 1-prop-2-ynyl-2[(4-trifluoromethylphenyl)-ethynyl]-pyridinium triflate] | 0.9% | 33% | 78% | 90% | – | – | –
C#CC[n+]1ccccc1C#C [drawing 125, 1-prop-2-ynyl-2-ethynyl-pyridinium triflate] | 12% | 39% | 77% | 85% | – | – | growth inhibition of A549 cells (in words) (A549 cancer cells; A549): less activity; growth inhibition of MCF-7 cells (in words) (MCF-7 cancer cells; MCF-7): less activity
C#CC[n+]1ccccc1CCc1ccccc1 [drawing 128, 1-prop-2-ynyl-2-phenethyl-pyridinium triflate] | 2% | 4% | 10% | 13% | – | – | DNA cleavage (in words) ([5]; ΦX174 DNA): does not cleave DNA to any appreciable extent
C#CC[n+]1ccccc1C#Cc1ccccc1 [drawing 129] | – | – | – | – | 3.3 µM | 3.1 µM | –
C#CC[n+]1ccccc1C#Cc1ccc(OC)cc1 [drawing 130] | – | – | – | – | 2.7 µM | 8.7 µM | –
C#CC[n+]1ccccc1C#Cc1ccc(C(F)(F)F)cc1 [drawing 131] | – | – | – | – | 9.8 µM | 10 µM | –
C#CC[n+]1ccccc1C#C [drawing 132] | – | – | – | – | 21 µM | 63 µM | –
C#CC[n+]1ccccc1CCc1ccccc1 [drawing 133] | – | – | – | – | 11 µM | 23 µM | –
